Legend:
[1] = molecular target: T1, Recombinant STAT3 protein (STAT3(G127-I722)) (Homo sapiens, UniProt P40763); assay: STAT3 Fluorescence Polarization (FP) Assay; format: binding; conditions: STAT3(G127-I722) 25 nM, probe 5-FAM-GpYLPQTV-NH2 2 nM, 45-minute incubation
T1 construct: Recombinant STAT3 protein (STAT3(G127-I722))
Summary of the method: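 STAT3(G127-I722), 25 nM, was mixed with 2 nM 5-FAM-GpYLPQTV-NH2 probe in HEPES pH 7.4 buffer with 1% DMSO and serially diluted compound. FP (mP) was read after 45 min at room temperature. IC50 came from nonlinear regression.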

[2] = molecular target: T2, Recombinant STAT6 protein (STAT6(W123-T658)) (Homo sapiens, UniProt P42226); assay: STAT6 Fluorescence Polarization (FP) Assay; format: binding; conditions: STAT6(W123-T658) 250 nM, probe 5-FAM-ApYKPFQDLI-NH2 2 nM, 45-minute incubation
T2 construct: Recombinant STAT6 protein (STAT6(W123-T658))
T2 sequence (P42226 123-658): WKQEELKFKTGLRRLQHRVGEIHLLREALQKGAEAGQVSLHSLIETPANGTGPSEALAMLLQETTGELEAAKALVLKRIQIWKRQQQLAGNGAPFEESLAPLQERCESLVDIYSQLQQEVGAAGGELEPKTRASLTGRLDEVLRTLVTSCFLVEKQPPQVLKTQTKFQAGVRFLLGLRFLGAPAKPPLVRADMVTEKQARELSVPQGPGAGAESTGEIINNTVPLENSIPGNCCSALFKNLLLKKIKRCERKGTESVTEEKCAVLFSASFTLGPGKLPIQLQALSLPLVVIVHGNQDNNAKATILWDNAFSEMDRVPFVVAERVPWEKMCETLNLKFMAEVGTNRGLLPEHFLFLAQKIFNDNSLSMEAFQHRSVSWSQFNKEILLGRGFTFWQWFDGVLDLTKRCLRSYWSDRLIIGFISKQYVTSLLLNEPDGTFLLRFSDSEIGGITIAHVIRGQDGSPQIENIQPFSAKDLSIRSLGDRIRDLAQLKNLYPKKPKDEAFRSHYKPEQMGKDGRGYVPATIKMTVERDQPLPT
Summary of the method: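 Displacement of a fluorescent phosphotyrosine peptide (5-FAM-ApYKPFQDLI-NH2, 2 nM) from STAT6(W123-T658) (250 nM), 1% DMSO, pH 7.4 HEPES buffer. After 45 min at room temperature, polarization (mP) was plotted versus log compound concentration and fitted by nonlinear regression to give IC50.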

T1 sequence (P40763 127-722): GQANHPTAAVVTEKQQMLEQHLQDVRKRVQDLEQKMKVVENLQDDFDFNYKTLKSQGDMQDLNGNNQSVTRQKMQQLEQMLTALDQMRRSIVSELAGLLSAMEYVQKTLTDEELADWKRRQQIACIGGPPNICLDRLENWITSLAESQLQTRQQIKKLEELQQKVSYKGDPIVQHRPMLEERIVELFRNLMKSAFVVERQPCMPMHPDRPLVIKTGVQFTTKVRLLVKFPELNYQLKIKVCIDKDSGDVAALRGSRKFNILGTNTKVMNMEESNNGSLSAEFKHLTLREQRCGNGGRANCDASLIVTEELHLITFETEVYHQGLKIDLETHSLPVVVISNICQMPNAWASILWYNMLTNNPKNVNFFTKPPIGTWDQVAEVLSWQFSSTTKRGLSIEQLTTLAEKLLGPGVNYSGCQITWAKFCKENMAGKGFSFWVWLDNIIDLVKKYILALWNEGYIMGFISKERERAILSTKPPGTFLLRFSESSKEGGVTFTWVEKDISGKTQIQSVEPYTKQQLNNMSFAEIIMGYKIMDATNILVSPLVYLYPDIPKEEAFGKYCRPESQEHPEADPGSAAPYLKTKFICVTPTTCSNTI

Compound | IC50 [1] | IC50 [2]
CC(=O)N1CC[C@H]2CC[C@@H](C(=O)N(C)c3cccc(C#N)c3)N2C(=O)[C@@H](NC(=O)c2cc3cc(C(F)(F)P(=O)(O)O)ccc3[nH]2)C1 [Compound 167, ((2-(((5S,8S,10aR)-3-acetyl-8-((3-cyanophenyl)(methyl)carbamoyl)-6-oxodecahydropyrrolo[1,2-a][1,5]diazocin-5-yl)carbamoyl)-1H-indol-5-yl)difluoromethyl)phosphonic acid] | 1 to 10 µM | 0.3 to 3 µM
CC(=O)N1CC[C@H]2CC[C@@H](C(=O)N3C[C@@H](C#N)[C@H](c4ccccc4)C3)N2C(=O)[C@@H](NC(=O)c2cc3cc(C(F)(F)P(=O)(O)O)ccc3s2)C1 (single isomer, unassigned) [Compound 52, ((2-(((5S,8S,10aR)-3-acetyl-8-((3S,4R or 3R,4S)-3-cyano-4-phenylpyrrolidine-1-carbonyl)-6-oxodecahydropyrrolo[1,2-a][1,5]diazocin-5-yl)carbamoyl)benzo[b]thiophen-5-yl)difluoromethyl)phosphonic acid] | 1 to 10 µM | ≤ 0.3 µM
COc1cc(C(=O)N[C@H]2CN(C(=O)c3noc4ccc(C)cc34)CC[C@H]3CC[C@@H](C(=O)N4CCOCC4)N3C2=O)cc2cc(CP(=O)(O)O)ccc12 [Compound 388, ((5-methoxy-7-(((5S, 8S,10aR)-3-(5-methylbenzo[d]isoxazole-3-carbonyl)-8-(morpholine-4-carbonyl)-6-oxodecahydropyrrolo [1,2-a][1,5]diazocin-5-yl)carbamoyl)naphthalen-2-yl)methyl) phosphonic acid] | > 10 µM | 0.3 to 3 µM
CC(=O)N1CC[C@H]2CC[C@@H](C(=O)N(C)c3ccc4nnccc4c3)N2C(=O)[C@@H](NC(=O)c2ccc3ccc(C(F)(F)P(=O)(O)O)cc3n2)C1 [Compound 118, ((2-(((5S,8S,10aR)-3-acetyl-8-(cinnolin-6-yl(methyl)carbamoyl)-6-oxodecahydropyrrolo[1,2-a][1,5]diazocin-5-yl)carbamoyl)quinolin-7-yl)difluoromethyl)phosphonic acid] | > 10 µM | 0.3 to 3 µM
CCN1CC[C@H]2CC[C@@H](C(=O)N3C[C@@H](C#N)[C@H](c4ccccc4)C3)N2C(=O)[C@@H](NC(=O)c2cc3cc(C(F)(F)P(=O)(O)O)ccc3s2)C1 (single isomer, unassigned) [Compound 222, ((2-(((5S,8S,10aR)-8-((3S,4R or 3R,4S)-3-cyano-4-phenylpyrrolidine-1-carbonyl)-3-ethyl-6-oxodecahydropyrrolo[1,2-a][1,5]diazocin-5-yl)carbamoyl)benzo[b]thiophen-5-yl)difluoromethyl)phosphonic acid] | 1 to 10 µM | 0.3 to 3 µM
O=C(N[C@H]1CN(C(=O)NCc2ccccc2)CC[C@H]2CC[C@@H](C(=O)Nc3ccc(-c4ccccc4)cc3)N2C1=O)c1cc2cc(C(F)(F)P(=O)(O)O)ccc2s1 [Compound 251, ((2-(((5S,8S,10aR)-8-([1,1′-biphenyl]-4-ylcarbamoyl)-3-(benzylcarbamoyl)-6-oxodecahydropyrrolo[1,2-a][1,5]diazocin-5-yl)carbamoyl)benzo[b]thiophen-5-yl)difluoromethyl)phosphonic acid] | 0.1 to 1 µM | 0.3 to 3 µM
CCc1ccc2onc(C(=O)N3CC[C@H]4CC[C@@H](C(=O)N5CCOCC56CC6)N4C(=O)[C@@H](NC(=O)c4ccc5ccc(C(F)P(=O)(O)O)cc5c4)C3)c2c1 (stereo partly drawn) [Compound 374, ((7-(((5S,8S,10aR)-3-(5-ethylbenzo[d]isoxazole-3-carbonyl)-6-oxo-8-(7-oxa-4-azaspiro[2.5]octane-4-carbonyl)decahydropyrrolo[1,2-a][1,5]diazocin-5-yl)carbamoyl)naphthalen-2-yl)fluoromethyl) phosphonic acid] | > 10 µM | ≤ 0.3 µM
CC(=O)N1CC[C@H]2CC[C@@H](C(=O)N3C[C@@H](C#N)[C@]4(C3)C(=O)Nc3ccccc34)N2C(=O)[C@@H](NC(=O)c2cc3cc(C(F)(F)P(=O)(O)O)ccc3s2)C1 (single isomer, unassigned) [Compound 12, ((2-(((5S,8S,10aR)-3-acetyl-8-((3S,4′S or 3R,4′R)-4′-cyano-2-oxospiro[indoline-3,3′-pyrrolidine]-1′-carbonyl)-6-oxodecahydropyrrolo[1,2-a][1,5]diazocin-5-yl)carbamoyl)benzo[b]thiophen-5-yl)difluoromethyl)phosphonic acid] | ≤ 0.1 µM | ≤ 0.3 µM
O=C(N[C@H]1CN(C(=O)c2noc3c2COCC3)CC[C@H]2CC[C@@H](C(=O)N3CCOCC3)N2C1=O)c1ccc2ccc(C(F)P(=O)(O)O)cc2c1 (stereo partly drawn) [Compound 360, ((7-(((5S,8S,10aR)-3-(6,7-dihydro-4H-pyrano[3,4-d]isoxazole-3-carbonyl)-8-(morpholine-4-carbonyl)-6-oxodecahydropyrrolo [1,2-a][1,5]diazocin-5-yl)carbamoyl)naphthalen-2-yl)fluoromethyl) phosphonic acid] | > 10 µM | 0.3 to 3 µM
CC(=O)N1CC[C@H]2CC[C@@H](C(=O)N3CC(c4cc(F)cc(F)c4)[C@@H](C#N)C3)N2C(=O)[C@@H](NC(=O)c2cc3cc(C(F)(F)P(=O)(O)O)ccc3s2)C1 (relative stereo) [Compound 142, ((2-(((5S,8S,10aR)-3-acetyl-8-((rel-trans)-3-cyano-4-(3,5-difluorophenyl)pyrrolidine-1-carbonyl)-6-oxodecahydropyrrolo[1,2-a][1,5]diazocin-5-yl)carbamoyl)benzo[b]thiophen-5-yl)difluoromethyl)phosphonic acid] | 1 to 10 µM | ≤ 0.3 µM
C[C@H](CC(=O)N1CC[C@H]2CC[C@@H](C(=O)N3CCCC3)N2C(=O)[C@@H](NC(=O)c2cc3cc(C(F)(F)P(=O)(O)O)ccc3s2)C1)c1ccccc1 [Compound 260, (difluoro(2-(((5S,8S,10aR)-6-oxo-3-((R)-3-phenylbutanoyl)-8-(pyrrolidine-1-carbonyl)decahydropyrrolo[1,2-a][1,5]diazocin-5-yl)carbamoyl)benzo[b]thiophen-5-yl)methyl)phosphonic acid] | 0.1 to 1 µM | 0.3 to 3 µM
CN(C(=O)[C@@H]1CC[C@@H]2CCN(CC(F)(F)F)C[C@H](NC(=O)c3cc4cc(C(F)(F)P(=O)(O)O)ccc4[nH]3)C(=O)N21)c1ccccc1 [Compound 219, (difluoro(2-(((5S,8S,10aR)-8-(methyl(phenyl)carbamoyl)-6-oxo-3-(2,2,2-trifluoroethyl)decahydropyrrolo[1,2-a][1,5]diazocin-5-yl)carbamoyl)-1H-indol-5-yl)methyl)phosphonic acid] | 1 to 10 µM | 0.3 to 3 µM
CCN1CC[C@H]2CC[C@@H](C(=O)N3C[C@@H](C#N)[C@H](c4cc[nH]c(=O)c4)C3)N2C(=O)[C@@H](NC(=O)c2ccc3ccc(C(F)(F)P(=O)(O)O)cc3c2)C1 (relative stereo) [Compound 240, ((7-(((5S,8S,10aR)-8-((rel-trans)-3-cyano-4-(2-oxo-1,2-dihydropyridin-4-yl)pyrrolidine-1-carbonyl)-3-ethyl-6-oxodecahydropyrrolo[1,2-a][1,5]diazocin-5-yl)carbamoyl)naphthalen-2-yl)difluoromethyl)phosphonic acid] | 1 to 10 µM | 0.3 to 3 µM

— patent US20250179103A1, “6-OXODECAHYDROPYRROLO[1,2-A][1,5]DIAZOCINE AND 6-OXODECAHYDRO-4H-PYRROLO[2,1-D][1,5]THIAZOCINE DERIVATIVES AS STAT3 AND STAT6 MODULATORS FOR THE TREATMENT OF CANCER AND INFLAMMATORY CONDITIONS” (Recludix Pharma, Inc., priority 2022, published 2025)
